Measurements as given in PMC5065787 (Bioorganic & medicinal chemistry, 2016).
Where a chain is given by its changes, count along the chain named.

How the values were obtained:
Type in all cases: biochemical
Conditions in all cases: error in parentheses, no unit in table (sec^−1)
WT h15-LOX-1 = target: T1, WT h15-LOX-1 (Homo sapiens, UniProt P16050); assay: Steady-state substrate kinetics, WT
T1 sequence (P16050 1-662): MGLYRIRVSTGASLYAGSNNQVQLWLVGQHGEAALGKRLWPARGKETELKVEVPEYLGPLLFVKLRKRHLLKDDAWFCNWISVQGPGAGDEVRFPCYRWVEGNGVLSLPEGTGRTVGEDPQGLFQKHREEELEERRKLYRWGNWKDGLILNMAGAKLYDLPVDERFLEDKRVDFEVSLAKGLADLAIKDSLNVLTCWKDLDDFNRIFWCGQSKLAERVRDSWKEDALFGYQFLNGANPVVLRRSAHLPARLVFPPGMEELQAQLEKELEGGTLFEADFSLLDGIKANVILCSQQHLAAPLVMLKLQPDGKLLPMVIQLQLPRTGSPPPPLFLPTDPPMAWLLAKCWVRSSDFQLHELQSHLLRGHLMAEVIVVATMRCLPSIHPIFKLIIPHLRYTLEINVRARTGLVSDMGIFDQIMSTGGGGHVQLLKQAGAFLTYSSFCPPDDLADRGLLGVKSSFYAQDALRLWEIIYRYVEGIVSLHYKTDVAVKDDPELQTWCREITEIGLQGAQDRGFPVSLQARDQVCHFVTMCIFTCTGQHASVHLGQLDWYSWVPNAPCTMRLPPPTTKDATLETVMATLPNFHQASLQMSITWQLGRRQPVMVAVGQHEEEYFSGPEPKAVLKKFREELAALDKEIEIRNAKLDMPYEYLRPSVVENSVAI

h15-LOX-1 L407A = target: T2, h15-LOX-1 L407A (Homo sapiens, UniProt P16050, L407A); assay: Steady-state substrate kinetics, L407A
T2 sequence (P16050 1-662 L407A): T1 sequence (P16050 1-662) with L407A

h15-LOX-1 E356Q = target: T3, h15-LOX-1 E356Q (Homo sapiens, UniProt P16050, E356Q); assay: Steady-state substrate kinetics, E356Q
T3 sequence (P16050 1-662 E356Q): T1 sequence (P16050 1-662) with E356Q

h15-LOX-1 Q547L = target: T4, h15-LOX-1 Q547L (Homo sapiens, UniProt P16050, Q547L); assay: Steady-state substrate kinetics, Q547L
T4 sequence (P16050 1-662 Q547L): T1 sequence (P16050 1-662) with Q547L

## CCCCC/C=C\C/C=C\C/C=C\C/C=C\CCCC(=O)O [AA, arachidonic acid]
WT h15-LOX-1
  kcat: 11 (0.5)
h15-LOX-1 L407A
  kcat: 2.5 (0.2)
h15-LOX-1 E356Q
  kcat: 3.0 (0.1)
h15-LOX-1 Q547L
  kcat: 2.9 (0.1)
